{"source": "patent US7524495B2", "about": "“Inhibition of TACE or amphiregulin for the modulation of EGF receptor signal transactivation” (Max-Planck-Gesellschaft zur Foerderung der Wissenschaften …, priority 2003, dated 2009)", "molecules": {"B1": {"name": "Timp-3: tissue inhibitor of metalloprotease-3; ectopic expression by retroviral transduction (protein)", "chain": "CTCSPSHPQDAFCNSDIVIRAKVVGKKLVKEGPFGTLVYTIKQMKMYRGFTKMPHVQYIHTEASESLCGLKLEVNKYQYLLTGRVYDGKMYTGLCNFVERWDQLTLSQRKGLNYRYHLGCNCKIKSCYYLPCFVTSKNECLWTDMLSNFGYPGYQSKHYACIRQKGGYCSWYRGWAPPDKSIINATDP", "modifications": "left off: small tags and cut ends", "notes": "ectopic expression by retroviral transduction"}}, "key": {"[1]": {"system": "proHB-EGF", "assay": "Flow cytometric analysis of proHB-EGF ectodomain cleavage", "format": "cell-based, human", "details": "HNSCC cells; data not shown", "protocol": "(§1) ACS analysis was performed as described before (1). Cells were stained with ectodomain-specific antibodies against HB-EGF, AR (R&D Systems) or TGFa (Oncogene, Boston; Mass.). After washing with PBS, cells were incubated with FITC-conjugated secondary antibody and analyzed on a Becton Dickinson FACScalibur flow cytometer."}, "[2]": {"system": "proTGFα", "assay": "Flow cytometric analysis of proTGFα ectodomain cleavage", "format": "cell-based, human", "details": "HNSCC cells; data not shown", "protocol": "as §1"}, "[3]": {"system": "proAR", "assay": "Flow cytometric analysis of cell surface proAR (proAR shedding)", "format": "cell-based, human", "details": "for cell surface content of endogenous proAR after agonist treatment: head and neck cancer cells, LPA 10 μM", "protocol": "(§2) FIG. 1 GPCR stimulation of the EGFR Involves a ligand-dependent mechanism and is accompanied by AR release from the cell surface. a, EGFR signal transactivation requires metalloprotease activity and the EGFR extracellular domain. SCC-9 cells were pre-incubated with marimastat (BB2516, 10 μM; 20 min), anti-EGFR antibody ICR-3R (20 μg/mL; 60 min) or PTX (100 ng/mL; 18 h) and treated with LPA (10 μM), carbachol (Car, 1 mM), EGF (7.5 ng/mL) or pervanadate (PV, 1 mM) for 3 min. Following immunoprecipitation (IP) of cell extracts with anti-EGFR antibody proteins were immunoblotted (IB) with anti-phosphotyrosine antibody and re-probed with anti-EGFR antibody. b, Flow cytometric analysis of EGF-like precursor expression. SCC-9 cells were collected and stained for surface HB-EGF, TGFa or AR and analyzed by flow cytometry. Control cells were labelled with FITC-conjugated secondary antibody alone. c, LPA-induced proteolytic processing of proAR. SCC-9 cells were pre-incubated with batimastat (BB94, 10 μM) or PTX and stimulated with LPA or TPA (1 μM) for 5 min. Cells were collected and analyzed for cell surface AR density by flow cytometry. d, GPCR-induced proteolytic release of AR. SCC-9 cells were pre-incubated with batimastat or vehicle followed by stimulation with agonists as indicated for 120 min. Conditioned medium was collected and analyzed for total AR amount by ELISA. Each bar is the average of triplicate values (mean±s.d.). *, P<0.03 for the difference between agonists vs. BB94+agonists.\nas §1"}, "[4]": {"system": "amphiregulin (AR)", "assay": "AR release into cell culture medium (sandwich ELISA)", "format": "cell-based, human", "details": "SCC-9 cells; compared to LPA stimulation", "protocol": "as §2, with “SCC-9 cells were pre-incubated with batimastat (BB94, 10 μM) or PTX and stimulated with LPA or TPA (1 μM) for 5 min.” left out, “SCC-9 cells were pre-incubated with batimastat or vehicle followed by stimulation with agonists as indicated for 120 min.” left out, “Each bar is the average of triplicate values (mean±s.d.). *, P<0.03 for the difference between agonists vs. BB94+agonists.” left out\nConcentrations of free AR were determined by sandwich ELISA (R&D Systems) using monoclonal anti-AR capture antibody and biotinylated polyclonal detection antibody. […] Values are expressed as mean±s.d. of at least triplicate samples. […]"}, "[5]": {"system": "EGFR", "assay": "EGFR tyrosine phosphorylation / EGFR signal transactivation (IP with anti-EGFR, anti-phosphotyrosine immunoblot)", "format": "cell-based, human", "details": "for GPCR-induced EGFR tyrosine phosphorylation (EGFR transactivation signal): SCC-9 cells, stimulation with LPA or carbachol", "protocol": "as §2\nFIG. 2 GPCR stimulation requires AR to trigger EGFR-dependent signals and biological responses. a, Blockade of EGF-like growth factor precursor expression by RNA interference (RNAi). SCC-9 cells were transfected with siRNA for proAR, proHB-EGF or proTGFα cultured for 2 days and analyzed for gene expression by RT-PCR as indicated or b, stimulated with LPA or carbachol and assayed for EGFR tyrosine phosphorylation content. c, Requirement of AR for LPA-induced cell migration. SIRNA-transfected SCC-9 cells were analyzed for transwell migration toward fibronectin as chemoattractant. Each bar is the average of quadruplicate values (mean±s.d.). *, P<0.001 for control siRNA+LPA vs. proAR siRNA+LPA. d, Effect of anti-AR neutralizing antibody and heparin on GPCR-induced EGFR and SHC tyrosine phosphorylation. […] Phosphorylated ERK1/2 was detected by immunoblotting total lysates with anti-phospho-ERK antibody. […] Quantitative analysis of ERK phosphorylation from three independent experiments (mean±s.d.). *, P<0.05 for the difference between LPA vs. inhibitors+LPA. […] Cells were then pulse-labelled with ^3H-thymidine and thymidine incorporation was measured by liquid-scintillation counting. Quantitative analysis from three independent experiments (mean±s.d.). *, P<0.001 for LPA vs. inhibitors+LPA. […]"}, "[6]": {"system": "SCC-15 cells", "assay": "3H-thymidine incorporation assay (DNA synthesis)", "format": "cell-based, human", "details": "18 h", "excerpt": "(§3) FIG. 2 GPCR stimulation requires AR to trigger EGFR-dependent signals and biological responses. a, Blockade of EGF-like growth factor precursor expression by RNA interference (RNAi). SCC-9 cells were transfected with siRNA for proAR, proHB-EGF or proTGFα cultured for 2 days and analyzed for gene expression by RT-PCR as indicated or b, stimulated with LPA or carbachol and assayed for EGFR tyrosine phosphorylation content. c, Requirement of AR for LPA-induced cell migration. SIRNA-transfected SCC-9 cells were analyzed for transwell migration toward fibronectin as chemoattractant. […] Phosphorylated ERK1/2 was detected by immunoblotting total lysates with anti-phospho-ERK antibody. […] Quantitative analysis of ERK phosphorylation from three independent experiments (mean±s.d.). *, P<0.05 for the difference between LPA vs. inhibitors+LPA. […] Cells were then pulse-labelled with ^3H-thymidine and thymidine incorporation was measured by liquid-scintillation counting. Quantitative analysis from three independent experiments (mean±s.d.). *, P<0.001 for LPA vs. inhibitors+LPA.\nFor the ^3H-thymidine incorporation assay (5), SCC-15 cells were seeded into 12-well plates at 3×10^4 cells/well. […] After 18 h cells were pulse-labelled with ^3H-thymidine (1 μCi/ml) for 4 h, and thymidine incorporation was measured by trichloroacetic acid precipitation and subsequent liquid-scintillation counting."}, "[7]": {"biological_target": "TACE (Homo sapiens, UniProt P78536)", "sequence (P78536 215-824)": "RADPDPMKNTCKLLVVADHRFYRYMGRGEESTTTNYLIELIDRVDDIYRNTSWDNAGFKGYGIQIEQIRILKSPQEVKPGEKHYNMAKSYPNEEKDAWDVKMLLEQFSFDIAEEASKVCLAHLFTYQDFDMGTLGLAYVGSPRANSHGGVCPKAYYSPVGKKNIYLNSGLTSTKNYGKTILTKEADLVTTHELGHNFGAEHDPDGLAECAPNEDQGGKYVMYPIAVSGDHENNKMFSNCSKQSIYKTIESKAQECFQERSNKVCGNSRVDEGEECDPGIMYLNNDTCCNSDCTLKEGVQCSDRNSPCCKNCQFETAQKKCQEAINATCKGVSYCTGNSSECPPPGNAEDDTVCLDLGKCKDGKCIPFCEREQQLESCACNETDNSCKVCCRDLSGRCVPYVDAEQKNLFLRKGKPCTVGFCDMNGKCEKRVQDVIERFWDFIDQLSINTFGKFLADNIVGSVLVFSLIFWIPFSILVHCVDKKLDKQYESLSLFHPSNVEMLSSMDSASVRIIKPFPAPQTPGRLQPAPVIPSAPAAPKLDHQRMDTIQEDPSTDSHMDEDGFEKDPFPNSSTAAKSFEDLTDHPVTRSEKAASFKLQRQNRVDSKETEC", "details": "reference (25); cited from earlier work"}, "[8]": {"system": "ERK1/2", "assay": "ERK/MAPK activation (anti-phospho-ERK immunoblot)", "format": "cell-based, human", "details": "SCC-9 and SCC-15 cells", "excerpt": "as §3\nCells were lysed and proteins immunoprecipitated as described (13). […] Phosphotyrosine was detected with the 4G10 monoclonal antibody (UBI, Lake Placid, N.Y.). […]"}, "[9]": {"system": "Akt/PKB", "assay": "Akt/PKB phosphorylation (anti-phospho-Akt immunoblot)", "format": "cell-based, human", "details": "head and neck cancer cells"}}, "data": [{"molecule": "CCCCCCCCCCCCCC(=O)O[C@@H]1[C@@H](C)[C@@]2(O)[C@@H](C=C(CO)C[C@]3(O)C(=O)C(C)=C[C@@H]23)[C@@H]2C(C)(C)[C@]12OC(C)=O", "note": "[TPA]", "values": [{"measurement": "proteolytic (ectodomain) cleavage of proHB-EGF by agonist", "setting": "[1]", "value": "resulted in ectodomain cleavage"}, {"measurement": "proteolytic (ectodomain) cleavage of proTGFα by agonist", "setting": "[2]", "value": "resulted in ectodomain cleavage"}, {"measurement": "cell surface content of endogenous proAR after agonist treatment", "setting": "[3]; TPA 1 µM as printed", "value": "reduced"}]}, {"molecule": "C[N+](C)(C)CCOC(N)=O", "note": "[carbachol]", "values": [{"measurement": "AR release in response to agonist", "setting": "[4]", "value": "substantially lower compared to LPA stimulation"}]}, {"molecule": "CNC(=O)[C@@H](NC(=O)[C@H](CC(C)C)[C@H](O)C(=O)NO)C(C)(C)C", "note": "[marimastat]", "values": [{"measurement": "GPCR-induced EGFR tyrosine phosphorylation (EGFR transactivation signal)", "setting": "[5]", "value": "sensitive"}]}, {"molecule": "COc1cc2ncnc(Nc3cccc(Cl)c3)c2cc1OC", "note": "[tyrphostin AG1478]", "values": [{"measurement": "DNA synthesis triggered by LPA", "setting": "[6]", "value": "decreased DNA synthesis by LPA to below basal level"}]}, {"molecule": "Timp-1: human Timp-1; ectopic expression by retroviral transduction", "values": [{"measurement": "GPCR-induced EGFR tyrosine phosphorylation (EGFR transactivation signal)", "setting": "[5]", "value": "not"}, {"measurement": "proteolytic activity of TACE in vitro", "setting": "[7]", "value": "not"}]}, {"molecule": "heparin", "values": [{"measurement": "LPA-induced ERK activation", "setting": "[8]", "value": "prevented"}, {"measurement": "LPA-induced EGFR tyrosine phosphorylation (EGFR signal transactivation)", "setting": "[5]; LPA 10 μM, 3 min, SCC-9 (anti-AR also SCC-4, SCC-15, SCC-25)", "value": "completely blocked"}]}, {"molecule": "lysophosphatidic acid [LPA]", "values": [{"measurement": "proteolytic (ectodomain) cleavage of proHB-EGF by agonist", "setting": "[1]", "value": "not able to induce"}, {"measurement": "phosphorylation of Akt/PKB at Ser-473 by agonist", "setting": "[9]", "value": "markedly increased"}, {"measurement": "proteolytic (ectodomain) cleavage of proTGFα by agonist", "setting": "[2]", "value": "not able to induce"}, {"measurement": "cell surface content of endogenous proAR after agonist treatment", "setting": "[3]; TPA 1 µM", "value": "reduced"}]}, {"molecule": "pertussis toxin [PTX]", "values": [{"measurement": "LPA-induced ectodomain cleavage (shedding) of proAR", "setting": "[3]; SCC-9 cells, batimastat 10 μM, PTX 100 ng/mL", "value": "partially inhibited"}]}, {"molecule": "B1", "values": [{"measurement": "GPCR-induced EGFR tyrosine phosphorylation (EGFR transactivation signal)", "setting": "[5]", "value": "inhibited"}, {"measurement": "proteolytic activity of TACE in vitro", "setting": "[7]", "value": "inhibited"}]}]}
